We go through 5 compounds from ChEMBL document CHEMBL3272189, “Orally active esters of cephalosporin antibiotics. Synthesis and biological properties of acyloxymethyl esters of 7-(D-2-amino-2-phenylacetamido)-3-[5-methyl-(1,3,4-thiadiazol-2-yl)thiomethyl]-3-cephem-4-carboxylic acid” (J Med Chem, 1977).

As a reminder, the half-life is the time needed for the level to fall by half in the phase considered. Low readings indicate rapid decline, high ones slow decline. Broadly, the MIC is the lowest concentration that inhibits growth of the organism.

Data set [1] is described as follows: Drug excretion in Lai:COX (Standard)BR mouse urine at 17 mg/kg, po after 120 mins. In kind it is ADME, organism-based. On the set-up: dose 17 mg/kg, route oral. The note with it: read-out: Drug excretion.
Data set [2] in a line: Half life in 0.1 M sodium phosphate buffer at 50 ug/ml at pH 4.5. The class given is physicochemical.
The nature of data set [3]: Half life in 0.1 M sodium phosphate buffer at 50 ug/ml at pH 6.5. In kind it is physicochemical.
A short description of data set [4]: Drug absorption in Lai:COX (Standard)BR mouse assessed as compound remaining in gastrointestinal tract at 17 mg/kg, po after 20 mins. In kind it is ADME, organism-based. Details: dose 17 mg/kg, route oral. Conditions: read-out: Stability.
Data set [5] in a line: Drug excretion in Lai:COX (Standard)BR mouse urine at 17 mg/kg, po after 60 mins. The class given is ADME, organism-based. On the set-up: dose 17 mg/kg, route oral. The note with it: read-out: Drug excretion.
A short description of data set [6]: Drug excretion in Lai:COX (Standard)BR mouse urine at 17 mg/kg, po after 20 mins. The class given is ADME, organism-based. On the set-up: dose 17 mg/kg, route oral. Conditions: read-out: Drug excretion.
A short description of data set [7]: Half life in 0.1 M sodium phosphate buffer at 50 ug/ml at pH 7.5. In kind it is physicochemical.
Data set [8] is described as follows: Drug excretion in Lai:COX (Standard)BR mouse urine at 17 mg/kg, po after 80 mins. In kind it is ADME, organism-based. Details: dose 17 mg/kg, route oral. The note with it: read-out: Drug excretion.
Data set [9] can be described thus: Drug excretion in Lai:COX (Standard)BR mouse urine at 17 mg/kg, po after 5 mins. Details: dose 17 mg/kg, route oral. The note with it: read-out: Drug excretion. The class given is ADME, organism-based.
Data set [10] in a line: Drug excretion in Lai:COX (Standard)BR mouse urine at 17 mg/kg, po after 100 mins. The class given is ADME, organism-based. On the set-up: dose 17 mg/kg, route oral. The note with it: read-out: Drug excretion.
The nature of data set [11]: Drug absorption in Lai:COX (Standard)BR mouse assessed as compound remaining in gastrointestinal tract at 17 mg/kg, po after 40 mins. The class given is ADME, organism-based. Details: dose 17 mg/kg, route oral. The note with it: read-out: Stability.
Data set [12] is described as follows: Drug excretion in Lai:COX (Standard)BR mouse urine at 17 mg/kg, po after 40 mins. The class given is ADME, organism-based. Conditions: read-out: Drug excretion. Details: dose 17 mg/kg, route oral.
For data set [13], the system named is Escherichia coli. The data set is described as follows: Antibacterial activity against Escherichia coli assessed as growth inhibition by gradient-plate assay. The class given is functional.
In data set [14] the test system is Serratia marcescens. As to the kind of experiment: Antibacterial activity against Serratia marcescens assessed as growth inhibition by gradient-plate assay. The class given is functional.
The nature of data set [15]: Drug excretion in Lai:COX (Standard)BR mouse urine at 17 mg/kg, sc after 20 mins. In kind it is ADME, organism-based. Details: dose 17 mg/kg, route subcutaneous. The note with it: read-out: Drug excretion.
Data set [16] in a line: Drug excretion in Lai:COX (Standard)BR mouse urine at 17 mg/kg, sc after 100 mins. In kind it is ADME, organism-based. On the set-up: dose 17 mg/kg, route subcutaneous. Conditions: read-out: Drug excretion.
The subject of data set [17] is Klebsiella aerogenes. The data set is described as follows: Antibacterial activity against Enterobacter aerogenes assessed as growth inhibition by gradient-plate assay. The class given is functional.
Data set [18] relates to Shigella sp. The data set is described as follows: Antibacterial activity against Shigella sp. assessed as growth inhibition by gradient-plate assay. The class given is functional.
Data set [19] in a line: Drug excretion in Lai:COX (Standard)BR mouse urine at 17 mg/kg, sc after 60 mins. In kind it is ADME, organism-based. On the set-up: dose 17 mg/kg, route subcutaneous. Conditions: read-out: Drug excretion.
Data set [20] concerns Klebsiella pneumoniae. The data set is described as follows: Antibacterial activity against Klebsiella pneumoniae assessed as growth inhibition by gradient-plate assay. The class given is functional.
The nature of data set [21]: Drug excretion in Lai:COX (Standard)BR mouse urine at 17 mg/kg, sc after 80 mins. Details: dose 17 mg/kg, route subcutaneous. The class given is ADME, organism-based. The note with it: read-out: Drug excretion.
A short description of data set [22]: Drug excretion in Lai:COX (Standard)BR mouse urine at 17 mg/kg, sc after 40 mins. On the set-up: dose 17 mg/kg, route subcutaneous. The class given is ADME, organism-based. Conditions: read-out: Drug excretion.
The nature of data set [23]: Antibacterial activity against Salmonella heidelberg assessed as growth inhibition by gradient-plate assay. In kind it is functional, Salmonella enterica subsp. enterica serovar Heidelberg. Conditions: Salmonella enterica.
A short description of data set [24]: Drug excretion in Lai:COX (Standard)BR mouse urine at 17 mg/kg, sc after 5 mins. The class given is ADME, organism-based. On the set-up: dose 17 mg/kg, route subcutaneous. The note with it: read-out: Drug excretion.
In data set [25] the test system is Staphylococcus aureus. As to the kind of experiment: Antibacterial activity against penicillin-resistant, coagulase-positive Staphylococcus aureus assessed as growth inhibition by gradient-plate assay. In kind it is functional.
Data set [26] is described as follows: Drug excretion in Lai:COX (Standard)BR mouse urine at 17 mg/kg, sc after 120 mins. The note with it: read-out: Drug excretion. The class given is ADME, organism-based. On the set-up: dose 17 mg/kg, route subcutaneous.
Data set [27] has as its system Blood. The data set is described as follows: Drug uptake in Lai:COX (Standard)BR mouse blood at 17 mg/kg, po. The class given is ADME, organism-based. On the set-up: dose 17 mg/kg, route oral. The note with it: in vivo.

In brackets after ≈: the same amount, converted by molar mass.

Regarding `Cc1nnc(SCC2=C(C(=O)OCOC(=O)C(C)(C)C)N3C(=O)[C@@H](NC(=O)[C@H](N)c4ccccc4)[C@H]3SC2)s1.Cl`, the dose excreted at 2 h in [1] was 41.5%. Further, the figures for the half-life at 50 ug/ml in [2], in data set [3] and in data set [7] were 32 h, 45 min and 25 min, respectively. Also, the remaining at 20 min in [4] was 40.5%. Moreover, the dose excreted at 1 h in data set [5] stood at 43.2%. In addition, the dose excreted at 20 min in data set [6] was 20.8%. The dose excreted at 80 min in data set [8] was 48.2%. For the same compound, in data set [9], the dose excreted at 5 min came to 3.6%. In addition, the dose excreted at 100 min in data set [10] was found to be 41.8%. For the same compound, the remaining at 40 min in [11] is 25%. Also, the dose excreted at 40 min in data set [12] came to 38.9%.

In the case of `Cc1nnc(SCC2=C(C(=O)O)N3C(=O)[C@@H](NC(=O)[C@H](N)c4ccccc4)[C@H]3SC2)s1`, the minimal inhibitory concentration (MIC) in [13] was 1 µg/mL (≈ 2.09 µM); in data set [14], 26.5 µg/mL (≈ 55.5 µM); in [17], 0.8 µg/mL (≈ 1.68 µM); in [18], 1 µg/mL (≈ 2.09 µM); in data set [20], 0.6 µg/mL (≈ 1.26 µM); in data set [23] it was 1 µg/mL (≈ 2.09 µM). Further, the MIC in data set [25] turned out to be 0.7 µg/mL (≈ 1.47 µM). The dose excreted at 20 min in data set [15] was found to be 25%; in data set [6], 2.8%. In addition, the dose excreted at 100 min amounted to 54.1% in [16] and 22.4% in [10]. For the same compound, the dose excreted at 2 h in data set [1] came to 14.1%; in data set [26] it was 54.1%. The dose excreted at 1 h in data set [19] amounted to 50.7%; in [5] it was 13.2%. The dose excreted at 80 min stood at 56.7% in data set [21] and 17.5% in data set [8]. The results for the half-life at 50 ug/ml in data set [2], in data set [3] and in data set [7] were 47 h, 76 min and 54 min, respectively. Further, the figures for the dose excreted at 40 min in data set [22] and in data set [12] were 46.5% and 8.4%, respectively. For the same compound, the dose excreted at 5 min in data set [24] turned out to be 2.8%. In [4], the remaining at 20 min worked out at 81.2%. For the same compound, the Drug uptake entry in [27] is “Active”. Also, in data set [11], the remaining at 40 min is 67.5%.

Regarding `CC(=O)OCOC(=O)C1=C(CSc2nnc(C)s2)CS[C@@H]2[C@H](NC(=O)[C@H](N)c3ccccc3)C(=O)N12.Cl`, the dose excreted at 2 h in data set [1] is 36.8%. Further, the results for the half-life at 50 ug/ml in [2], in data set [3] and in [7] were 27 h, 60 min and 25 min, respectively. In addition, in data set [4], the remaining at 20 min came to 39.1%. Also, the dose excreted at 1 h in data set [5] turned out to be 33.1%. Besides, the dose excreted at 20 min in data set [6] turned out to be 20.4%. For the same compound, the dose excreted at 80 min in data set [8] turned out to be 36.1%. For the same compound, the dose excreted at 100 min in data set [10] is 38.3%. Moreover, the remaining at 40 min in data set [11] was determined as 31.5%. Besides, the dose excreted at 40 min in [12] was 32.5%.

`Cc1nnc(SCC2=C(C(=O)OC3OC(=O)c4ccccc43)N3C(=O)[C@@H](NC(=O)[C@H](N)c4ccccc4)[C@H]3SC2)s1.Cl` (stereo not given in full): the figures for the half-life at 50 ug/ml in data set [3] and in [7] were 25 min and 15 min, respectively. Also, in data set [4], the remaining at 20 min came to 59%. Further, the dose excreted at 1 h in data set [5] is 35%. Further, the dose excreted at 20 min in [6] stood at 8.3%. In addition, the dose excreted at 80 min in [8] was 30.5%. In data set [10], the dose excreted at 100 min amounted to 34%. For the same compound, in data set [11], the remaining at 40 min is 35%. Moreover, in [12], the dose excreted at 40 min came to 22.1%.

As for `CC1=C(C(=O)O)N2C(=O)[C@@H](NC(=O)[C@H](N)c3ccccc3)[C@H]2SC1` [CEPHALEXIN ANHYDROUS], the minimum inhibitory concentration (MIC) in data set [13] turned out to be 8.5 µg/mL (≈ 24.5 µM); in data set [14], 140 µg/mL (≈ 403 µM); in [17], 6.8 µg/mL (≈ 19.6 µM); in [18] it was 9 µg/mL (≈ 25.9 µM); in data set [20], 7 µg/mL (≈ 20.1 µM); in data set [23], 5.5 µg/mL (≈ 15.8 µM). Also, the MIC in data set [25] was determined as 4.5 µg/mL (≈ 13 µM).
